Data taken from publication PMC6222672, “Pharmacokinetic and Metabolism Studies of 12-Riboside-Pseudoginsengenin DQ by UPLC-MS/MS and UPLC-QTOF-MS^E” (Molecules : A Journal of Synthetic Chemistry and Natural …, 2018).
Where two headings read alike, the source gives them in different places.

How the values were obtained:
[1] = cited from earlier work
[2] = format: in vitro ADME; details: rat, 100 ng/mL
Method: RPDQ and 20R-panaxadiol stock methanol solutions (1.00 mg/mL) were all prepared with the reference compounds, respectively. Firstly, blank rat plasma was prepared. The blood samples were collected immediately from the abdominal aorta and incubated at 37 °C for 30 min. The plasma was separated by centrifugation at 4000 rpm for 15 min, and was frozen at −20 °C until analysis. By spiking the dilute solutions with blank rat plasma, calibration curves were plotted to produce the points equivalent to 5, 10, 25, 50, 100, 300, 500, and 1000 ng/mL for RPDQ. […] All the QC and calibration standards samples were prepared freshly before analysis. The specificity, linearity, LLOQ, precision and accuracy, extraction recovery, matrix effect, diluted reliability, and stability of the method were validated by following a non-clinical drug pharmacokinetic study technical guideline (China Food And Drug Administration 2014) and the Bioanalytical Method Validation Guideline (Chinese Pharmacopoeia 2015, Vol. 4). Specificity was assessed by comparing blank plasma samples, plasma was spiked with RPDQ and 20R-panaxadiol, and plasma samples were collected after administration. Linearity was analyzed through weighted regression (1/x^2) of peak area ratios (y) of RPDQ to 20R-panaxadiol versus nominal concentration (x) in plasma. […] The intra- and inter-day precision and accuracy were evaluated with the analysis of six replicate QC samples on three consecutive days, respectively. The extraction recovery and matrix effect at three QC concentrations were assayed. By comparing peak areas of RPDQ and 20R-panaxadiol in extracted QC samples with those in post-extracted blank plasma samples, the recoveries were calculated. Moreover, by comparing the peak area of samples spiked after extraction with that of the neat solution’s equivalent concentration, the matrix effect was then evaluated. Stability was evaluated by analyzing replicate QC samples, which were stored at −20 °C for two weeks at room temperature for 4 h, and experienced three freeze/thaw cycles (from −20 °C to room temperature) on consecutive days. The stabilities of RPDQ in stock solutions at 15 °C and stored in plastic autosampler vials for 16 h at 10 °C were also assessed. Five-fold higher concentrations of QC were achieved by adding moderate RPDQ to blank plasma. The samples were then diluted and analyzed with undiluted calibration standards. The accuracy and precision were within acceptable limits (± 15%).

[3] = Metabolite identification in rat plasma, bile, urine and feces by UPLC-QTOF-MSE; format: in vivo; details: rats, RPDQ 48 mg/kg i.g.
Method: For a metabolism study, RPDQ (48 mg/kg, i.g.) was administered to obtain a high concentration of metabolites. […] The pooled plasma sample (500 μL) was then added with methanol (2 mL) to vortex and precipitate proteins. Subsequently, the mixtures were centrifuged (10,000 rpm, 4 °C, 10 min) to obtain the supernatant, which was then evaporated by N2 to obtain the residue. Methanol (100 μL) was used to reconstitute the residue. In order to obtain bile samples, rats were anaesthetized with urethane (1.0 g/kg, intraperitoneal injection). After making an abdominal incision, the bile was collecting by surgically inserting a plastic cannula into the bile ducts. Prior to administration, blank bile was collected for 2 h. After administration, bile samples were collected for 12 h. By using metabolism cages, blank and dosed urine and feces samples were also collected prior to administration or 24 h after administration. After diluting each urine or bile sample (300 μL) with 1 mL of methanol, the mixture was centrifuged (10,000 rpm, 4 °C, 10 min) to obtain the supernatant, which was then evaporated by N2 to obtain the dried urine or bile residue. Methanol (50 μL) was then used to dissolve each residue. After centrifuging (10,000 rpm, 4 °C, 10 min), the clear supernatants were used for the analysis. […] Metabolic characterization of RPDQ was analyzed using UNIFI 1.7.0 software (Waters, Manchester, UK).

[4] = after intragastric administration

Question: For `CC(C)=CCC[C@](C)(O[C@@H]1O[C@H](CO)[C@@H](O)[C@H](O)[C@H]1O)[C@H]1CC[C@]2(C)[C@@H]1[C@H](O)C[C@@H]1[C@@]3(C)CC[C@H](O)C(C)(C)[C@@H]3CC[C@]12C` [CK, Ginsenoside CK], which bioavailability [1, 4] is on record?
Answer: The bioavailability was 4.30%.

Question: For `CC1(C)CCCC(C)(C2CC[C@]3(C)C2C(O)CC2C4(C)CCC(O)C(C)(C)C4CCC23C)O1` (stereo partly drawn) [IS, 20R-panaxadiol, reference compound], which Mean concentration [2] is on record?
Answer: The Mean concentration was 94.11 ± 3.47 ng/mL.

Question: What about the Accuracy ([2]; 3 freeze-thaw cycles) of the same molecule?
Answer: The Accuracy was −5.89%.

Question: What about the Accuracy ([2]; 4 h) of the same molecule?
Answer: The Accuracy was −7.66%.

Question: What about the Mean concentration ([2]; 4 h) of the same molecule?
Answer: The Mean concentration was 92.34 ± 3.12 ng/mL.

Question: What about the Accuracy ([2]; 16 h) of the same molecule?
Answer: Its Accuracy is −8.66%.

Question: And the Mean concentration ([2]; 16 h)?
Answer: The Mean concentration was 91.34 ± 2.31 ng/mL.

Question: What about the Accuracy ([2]; 14 d) of the same molecule?
Answer: Its Accuracy is −5.26%.

Question: And the Mean concentration ([2]; 14 d)?
Answer: Its Mean concentration is 94.74 ± 4.25 ng/mL.

Question: What does the source list for `CC(C)=CCC[C@](C)(O[C@@H]1O[C@H](CO[C@@H]2O[C@H](CO)[C@@H](O)[C@H](O)[C@H]2O)[C@@H](O)[C@H](O)[C@H]1O)[C@H]1CC[C@]2(C)[C@@H]1[C@H](O)C[C@@H]1[C@@]3(C)CC[C@H](O[C@@H]4O[C@H](CO)[C@@H](O)[C@H](O)[C@H]4O[C@@H]4O[C@H](CO)[C@@H](O)[C@H](O)[C@H]4O)C(C)(C)[C@@H]3CC[C@]12C` [Rb1, Ginsenosides Rb1]?
Answer: bioavailability [1, 4]: 0.78%; biological half time (t1/2) [1, 4]: 9.8 h

Question: Which bioavailability [1, 4] does the source give for `CC(C)=CCC[C@](C)(O[C@@H]1O[C@H](CO[C@@H]2OC[C@H](O)[C@H](O)[C@H]2O)[C@@H](O)[C@H](O)[C@H]1O)[C@H]1CC[C@]2(C)[C@@H]1[C@H](O)C[C@@H]1[C@@]3(C)CC[C@H](O[C@@H]4O[C@H](CO)[C@@H](O)[C@H](O)[C@H]4O[C@@H]4O[C@H](CO)[C@@H](O)[C@H](O)[C@H]4O)C(C)(C)[C@@H]3CC[C@]12C` [Rb2] here?
Answer: Its bioavailability is 0.08%.

Question: And the “biological half time (t1/2)” value [1, 4]?
Answer: Its value is 23.1 h.

Question: Which results are given for `CC(C)=CCC[C@](C)(O[C@@H]1O[C@H](CO[C@@H]2OC[C@@H](O)[C@H](O)[C@H]2O)[C@@H](O)[C@H](O)[C@H]1O)[C@H]1CC[C@]2(C)[C@@H]1[C@H](O)C[C@@H]1[C@@]3(C)CC[C@H](O[C@@H]4O[C@H](CO)[C@@H](O)[C@H](O)[C@H]4O[C@@H]4O[C@H](CO)[C@@H](O)[C@H](O)[C@H]4O)C(C)(C)[C@@H]3CC[C@]12C` [Rb3]?
Answer: bioavailability [1, 4]: 0.52%; biological half time (t1/2) [1, 4]: 21.1 h

Question: For `CC(C)=CCC[C@](C)(O[C@@H]1O[C@H](CO)[C@@H](O)[C@H](O)[C@H]1O)[C@H]1CC[C@]2(C)[C@@H]1[C@H](O)C[C@@H]1[C@@]3(C)CC[C@H](O)C(C)(C)[C@@H]3[C@@H](O[C@@H]3O[C@H](CO)[C@@H](O)[C@H](O)[C@H]3O)C[C@]12C` [Rg1], which bioavailability [1, 4] is on record?
Answer: The bioavailability was 1.33%.

Question: With `CC(C)=CCC[C@](C)(O)[C@H]1CC[C@]2(C)[C@@H]1[C@H](O)C[C@@H]1[C@@]3(C)CC[C@H](O)C(C)(C)[C@@H]3[C@@H](O[C@@H]3O[C@H](CO)[C@@H](O)[C@H](O)[C@H]3O)C[C@]12C` [Rh1] as the molecule, how does the bioavailability [1, 4] read?
Answer: Its bioavailability is 1.01%.

Question: And the t1/2 [1, 4]?
Answer: Its t1/2 is 25.8 min.

Question: For `CC(C)=CCCC(C)(O)C1CCC2(C)C1C(O)CC1C3(C)CCC(O)C(C)(C)C3CCC12C` (stereo not shown) [protopanaxdiol], which “bioavailability (F)” value ([1]; rat, in vivo, po) is on record?
Answer: Its value is 36.8%.

Question: What about the “elimination half-life (t1/2)” value ([1]; rat, in vivo, po) of the same molecule?
Answer: Its value is 88.8 min.

Question: For `CC1(C)C(O)CCC2(C)C1CCC1(C)C2CC(O)C2C([C@]3(C)CC[C@@H](C(C)(C)O)O3)CC[C@]21C` (stereo partly shown) [pseudoginsengenin DQ], which “Source (samples in which detected: plasma, bile, feces, urine)” value [3] is on record?
Answer: Its value is “P,B, F,U”.

Question: And the “biological half time (t1/2)” value [1, 4]?
Answer: The value was 5.97 h.
